Laboratory results as given in ChEMBL document CHEMBL5038622, “p-Terphenyls as Anti-HSV-1/2 Agents from a Deep-Sea-Derived Penicillium sp” (J Nat Prod, 2021).
Active and inactive are the calls of the source. The rule behind the calls is not given here.

How the values were obtained:
[1] = test system: Human alphaherpesvirus 2; experiment: Antiviral activity against HSV-2 infected in African green monkey Vero cells assessed as inhibition of viral replication incubated for 3 days by MTT assay; format: functional, organism-based; conditions: Human alphaherpesvirus 2, Vero, 72 h
[2] = test system: Human alphaherpesvirus 1; experiment: Antiviral activity against HSV-1 infected in African green monkey Vero cells assessed as inhibition of viral replication incubated for 3 days by MTT assay; format: functional, organism-based; conditions: Human alphaherpesvirus 1, Vero, 72 h
[3] = test system: HSV-2; experiment: Selectivity index, ratio of CC50 for african green monkey Vero cells to EC50 for HSV-2 infected in African green monkey Vero cells; format: toxicity; conditions: HSV-2 infected Vero cells
[4] = test system: HSV-1; experiment: Selectivity index, ratio of CC50 for african green monkey Vero cells to EC50 for HSV-1 infected in African green monkey Vero cells; format: toxicity; conditions: HSV-1 infected Vero cells
[5] = Cytotoxicity against African green monkey Vero cells assessed as reduction in cell viability incubated for 3 days by MTT assay; format: toxicity, cell-based; conditions: chlorocebus sabaeus, time 3 day
[6] = test system: Human alphaherpesvirus 2; experiment: Antiviral activity against HSV-2 infected in African green monkey Vero cells assessed as reduction in virus-induced cytopathic effect measured after 48 hrs by MTT assay; format: functional, organism-based; conditions: dose 0.63-10 µM
[7] = test system: Human alphaherpesvirus 2; experiment: Antiviral activity against HSV-2 infected in African green monkey Vero cells assessed as reduction in plague formation measured after 48 hrs by crystal violet staining based plaque formation assay; format: functional, organism-based; conditions: dose 0.63-10 µM
[8] = test system: Human alphaherpesvirus 1; experiment: Antiviral activity against HSV-1 infected in African green monkey Vero cells assessed as reduction in plague formation at 10 uM measured after 48 hrs by crystal violet staining based plaque formation assay; format: functional, organism-based
[9] = test system: Human alphaherpesvirus 2; experiment: Antiviral activity against HSV-2 infected in African green monkey Vero cells assessed as inhibition of syncytium formation at 0.63 to 10 uM coinfected for 1 hr and measured after 24 hrs by H&E staining based optical microscopic analysis; format: functional, organism-based; conditions: dose 0.63-10 µM, time 25.0 hrs
[10] = test system: Human alphaherpesvirus 2; experiment: Antiviral activity against HSV-2 infected in African green monkey Vero cells assessed as reduction in virus induced gD protein expression at 1.3 uM by western blot analysis; format: functional, organism-based
[11] = test system: Human alphaherpesvirus 1; experiment: Antiviral activity against HSV-1 infected in African green monkey Vero cells assessed as inhibition of syncytium formation at 0.63 to 10 uM coinfected for 1 hr and measured after 24 hrs by H&E staining based optical microscopic analysis; format: functional, organism-based; conditions: dose 0.63-10 µM, time 25.0 hrs
[12] = test system: Zika virus; experiment: Antiviral activity against Zika virus at 20 uM; format: functional, organism-based
[13] = test system: Human alphaherpesvirus 2; experiment: Antiviral activity against HSV-2 infected in African green monkey Vero cells assessed as reduction in gD protein expression under co-treatment condition by western blot analysis; format: functional, organism-based
[14] = test system: Human alphaherpesvirus 1; experiment: Antiviral activity against HSV-1 infected in African green monkey Vero cells assessed as reduction in virus induced VP16 gene expression measured after 48 hrs by qRT-PCR analysis; format: functional, organism-based; conditions: dose 0.63-10 µM
[15] = test system: Human alphaherpesvirus 1; experiment: Antiviral activity against HSV-1 infected in African green monkey Vero cells assessed as reduction in virus induced glycoprotein D gene expression measured after 48 hrs by qRT-PCR analysis; format: functional, organism-based; conditions: dose 0.63-10 µM
[16] = test system: Human alphaherpesvirus 2; experiment: Antiviral activity against HSV-2 infected in African green monkey Vero cells assessed as reduction in virus induced VP16 gene expression measured after 48 hrs by qRT-PCR analysis; format: functional, organism-based; conditions: dose 0.63-10 µM
[17] = test system: Human alphaherpesvirus 1; experiment: Antiviral activity against HSV-1 infected in African green monkey Vero cells assessed as reduction in plague formation measured after 48 hrs by crystal violet staining based plaque formation assay; format: functional, organism-based; conditions: dose 0.63-10 µM
[18] = test system: Human alphaherpesvirus 2; experiment: Antiviral activity against HSV-2 infected in African green monkey Vero cells assessed as reduction in plague formation at 5 uM measured after 48 hrs by crystal violet staining based plaque formation assay; format: functional, organism-based
[19] = test system: Dengue virus; experiment: Antiviral activity against Dengue virus at 20 uM; format: functional, organism-based
[20] = test system: Human alphaherpesvirus 2; experiment: Antiviral activity against HSV-2 infected in African green monkey Vero cells assessed as reduction in virus induced glycoprotein D gene expression measured after 48 hrs by qRT-PCR analysis; format: functional, organism-based; conditions: dose 0.63-10 µM
[21] = test system: Human alphaherpesvirus 1; experiment: Antiviral activity against HSV-1 infected in African green monkey Vero cells assessed as reduction in virus induced gD protein expression at 2.5 uM by western blot analysis; format: functional, organism-based
[22] = target: Acetylcholinesterase (Homo sapiens, UniProt P22303); experiment: Inhibition of AChE (unknown origin)
Sequence of Acetylcholinesterase (P22303 whole entry): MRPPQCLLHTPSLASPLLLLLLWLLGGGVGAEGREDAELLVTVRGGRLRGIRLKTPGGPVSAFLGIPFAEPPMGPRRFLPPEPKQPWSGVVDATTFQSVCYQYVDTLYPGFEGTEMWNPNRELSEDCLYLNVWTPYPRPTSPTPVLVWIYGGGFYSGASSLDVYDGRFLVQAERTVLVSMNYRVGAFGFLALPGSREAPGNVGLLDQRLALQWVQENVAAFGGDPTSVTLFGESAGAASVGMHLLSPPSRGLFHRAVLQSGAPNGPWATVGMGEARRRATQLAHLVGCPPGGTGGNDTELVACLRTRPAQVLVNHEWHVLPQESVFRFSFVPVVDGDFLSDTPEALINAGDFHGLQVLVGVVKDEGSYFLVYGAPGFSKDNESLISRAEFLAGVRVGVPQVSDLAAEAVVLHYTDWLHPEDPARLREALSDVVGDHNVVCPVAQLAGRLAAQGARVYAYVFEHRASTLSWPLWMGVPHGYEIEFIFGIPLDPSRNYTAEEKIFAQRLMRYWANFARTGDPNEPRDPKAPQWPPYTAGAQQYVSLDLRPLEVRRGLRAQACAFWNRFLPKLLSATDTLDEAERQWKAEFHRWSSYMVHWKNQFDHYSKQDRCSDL

[23] = test system: Human alphaherpesvirus 1; experiment: Antiviral activity against HSV-1 infected in African green monkey Vero cells assessed as reduction in virus-induced cytopathic effect measured after 48 hrs by MTT assay; format: functional, organism-based; conditions: dose 0.63-10 µM
[24] = target: T1, Pancreatic triacylglycerol lipase (Homo sapiens) (UniProt P16233); experiment: Inhibition of pancreatic lipase (unknown origin) at 100 uM
T1 sequence (whole entry): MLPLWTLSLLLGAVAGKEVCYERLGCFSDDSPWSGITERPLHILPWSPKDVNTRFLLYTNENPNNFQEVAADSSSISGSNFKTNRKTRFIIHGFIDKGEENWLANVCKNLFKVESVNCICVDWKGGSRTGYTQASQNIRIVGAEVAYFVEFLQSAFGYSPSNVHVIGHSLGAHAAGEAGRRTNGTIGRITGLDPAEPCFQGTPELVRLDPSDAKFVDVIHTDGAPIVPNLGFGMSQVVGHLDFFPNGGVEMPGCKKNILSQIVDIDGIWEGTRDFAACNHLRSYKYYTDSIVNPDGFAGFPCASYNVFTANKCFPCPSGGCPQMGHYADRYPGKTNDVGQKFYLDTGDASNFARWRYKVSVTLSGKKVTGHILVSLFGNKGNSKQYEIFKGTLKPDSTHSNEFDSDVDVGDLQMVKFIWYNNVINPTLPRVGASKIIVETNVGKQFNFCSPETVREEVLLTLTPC

SMILES: COc1c(-c2ccc(O)cc2)cc(O)c(-c2ccc(O)c(O)c2)c1O
- EC50 [1]: 2.3 µM
- EC50 [2]: 1.8 µM
- selectivity ratio [3]: > 43.7
- selectivity ratio [4]: > 54.4
- CC50 at 72 h [5]: > 100 µM

SMILES: COc1c(-c2ccc(O)c(O)c2)cc(O)c(-c2ccc(O)c(O)c2)c1O
- EC50 [1]: 4.2 µM
- EC50 [2]: 3.8 µM
- selectivity ratio [3]: > 23.8
- selectivity ratio [4]: > 26.5
- CC50 at 72 h [5]: > 100 µM

SMILES: COc1c(-c2ccc(O)c(O)c2)cc2oc3cc(O)c(O)cc3c2c1O
- EC50 [1]: 2.4 µM
- EC50 [2]: 4.3 µM
- selectivity ratio [3]: > 41.5
- selectivity ratio [4]: > 23
- CC50 at 72 h [5]: > 100 µM

SMILES: O=C1C(c2ccc(O)cc2)=CC(=O)c2c1oc1cc(O)c(O)cc21
- EC50 [1]: > 20 µM
- EC50 [2]: > 20 µM

SMILES: O=c1cc(-c2ccc(O)c(O)c2)c(-c2ccc(O)c(O)c2)co1
- EC50 [1]: 8.5 µM
- EC50 [2]: 9.3 µM
- selectivity ratio [3]: > 11.7
- selectivity ratio [4]: > 10.8
- CC50 at 72 h [5]: > 100 µM

SMILES: COC(=O)c1cc(O)cc(OC)c1C(=O)c1c(O)cc(C)cc1O [SULOCHRIN]
- EC50 [1]: > 20 µM
- EC50 [2]: > 20 µM

SMILES: COc1c(-c2ccc(O)c(O)c2)cc(O)c2c1oc1cc(O)c(O)cc12 [6'-DESMETHYLCANDIDUSIN B]
- EC50 [1]: 2.1 µM
- EC50 [2]: 4.1 µM
- selectivity ratio [3]: > 48.5
- selectivity ratio [4]: > 24.4
- CC50 at 72 h [5]: > 100 µM

SMILES: Nc1nc2c(ncn2COCCO)c(=O)[nH]1 [ACYCLOVIR]
- EC50 [1]: 4.6 µM
- EC50 [2]: 3.6 µM
- selectivity ratio [3]: > 21.9
- selectivity ratio [4]: > 27.9
- CC50 at 72 h [5]: > 100 µM

SMILES: COc1c(-c2ccc(O)cc2)cc2oc3cc(O)c(O)cc3c2c1O
- Activity [6]: Dose-Dependent Effect
- Activity [7]: Active
- EC50 [1]: 1.4 µM
- Activity [8]: Active
- Activity [9]: Active
- EC50 [2]: 2.2 µM
- Activity [10]: Active
- Activity [11]: Active
- Activity [12]: inactive
- selectivity ratio [3]: > 73.5
- Activity [13]: Active
- selectivity ratio [4]: > 45.7
- CC50 at 72 h [5]: > 100 µM
- Activity [14]: Dose-Dependent Effect
- Activity [15]: Dose-Dependent Effect
- Activity [16]: Dose-Dependent Effect
- Activity [17]: Active
- Activity [18]: Active
- Activity [19]: inactive
- Activity [20]: Dose-Dependent Effect
- Activity [21]: Active
- IC50 [22]: 16 µM
- Activity [23]: Dose-Dependent Effect
- inhibition [24]: inactive

SMILES: COc1c(-c2ccc(O)cc2)cc(O)c2c1oc1cc(O)c(O)cc12
- EC50 [1]: 6.5 µM
- EC50 [2]: 4.1 µM
- selectivity ratio [3]: > 15.4
- selectivity ratio [4]: > 24.7
- CC50 at 72 h [5]: > 100 µM
